The target in one data set is T1, human mGlu2 receptor (Homo sapiens, UniProt Q14416).
T1 construct: expressed in transfected cells; host or cells: CHO cells
Briefly: [35S]GTPγS binding assay (mGluR2 negative allosteric modulation, glutamate ~EC80 60 μM). To be noted: for Emax: maximal % inhibition relative to the control glutamate response (EC80 glutamate), read-out: GTPγS-hmGluR2 anGT Emax; for IC50: membranes from CHO cells transfected with human mGlu2 receptor, glutamate ~EC80 (60 μM), pIC50 = −log IC50 (M), read-out: GTPγS-hmGluR2 anGT pIC50 (converted). It is filed as biochemical. The procedure: 1) [^35S]GTPγS Binding Assay
[^35S]GTPγS Binding Assay
Total reaction volume was 200 μl. […] Membrane-bound radioactivity was counted in a Topcount.

T1 sequence (Q14416 19-872): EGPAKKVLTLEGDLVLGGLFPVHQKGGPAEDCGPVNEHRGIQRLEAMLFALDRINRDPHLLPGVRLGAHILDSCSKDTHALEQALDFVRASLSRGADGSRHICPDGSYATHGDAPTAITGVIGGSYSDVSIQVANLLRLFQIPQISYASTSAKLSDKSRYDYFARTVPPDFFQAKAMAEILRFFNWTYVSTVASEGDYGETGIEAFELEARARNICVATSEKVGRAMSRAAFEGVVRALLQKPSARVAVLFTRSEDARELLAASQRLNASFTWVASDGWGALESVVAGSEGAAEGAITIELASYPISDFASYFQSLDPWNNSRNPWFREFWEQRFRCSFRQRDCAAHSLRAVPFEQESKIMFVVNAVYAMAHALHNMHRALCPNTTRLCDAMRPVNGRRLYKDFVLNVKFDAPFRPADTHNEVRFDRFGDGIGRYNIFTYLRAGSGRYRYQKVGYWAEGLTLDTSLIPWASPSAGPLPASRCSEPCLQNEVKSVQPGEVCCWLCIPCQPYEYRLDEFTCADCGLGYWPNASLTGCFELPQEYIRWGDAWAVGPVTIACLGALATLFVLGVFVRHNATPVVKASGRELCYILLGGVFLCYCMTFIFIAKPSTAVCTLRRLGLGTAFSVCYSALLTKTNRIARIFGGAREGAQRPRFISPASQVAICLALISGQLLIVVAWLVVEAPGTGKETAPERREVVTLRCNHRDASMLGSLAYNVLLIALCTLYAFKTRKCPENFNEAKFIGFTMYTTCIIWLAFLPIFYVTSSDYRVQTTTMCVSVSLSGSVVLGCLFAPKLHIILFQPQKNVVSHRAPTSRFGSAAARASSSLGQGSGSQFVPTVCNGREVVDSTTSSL

For the molecule `C[C@H]1CN(c2ccc(C(F)(F)F)cn2)C(=O)c2c(NC(=O)c3ccc(N)nc3)cnn21` [Co. No. 61], the melting point (commonly the temperature, or range, at which the solid turns liquid) was 223.46 °C. Besides, at human mGlu2 receptor, the Emax (as a rule, the maximal effect, on the per cent scale that the assay sets) is 103% and the IC50 was 2.45e-08 M.
`COc1cccc(C(=O)Nc2cnn3c2C(=O)N(c2ccc(C(F)(F)F)cc2)C[C@@H]3C)n1` [Co. No. 21] displayed a melting point of 199.24 °C. In addition, on human mGlu2 receptor, the maximal response (Emax) worked out at 106% and the IC50 is 4.68e-09 M.
In the case of `C[C@H]1CN(c2ccc(C(F)(F)F)cc2)C(=O)c2c(NC(=O)c3ccno3)cnn21` [Co. No. 69], on human mGlu2 receptor, the maximal response (Emax) came out at 103% and the IC50 was 2.95e-08 M.
In the case of `C[C@H]1CN(c2ccc(Cl)c(Cl)c2)C(=O)c2c(NC(=O)C(F)(F)F)cnn21` [Co. No. 173, N-[(7S)-5-(3,4-Dichlorophenyl)-7-methyl-4-oxo-6,7-dihydropyrazolo[1,5-a]pyrazin-3-yl]-2,2,2-trifluoro-acetamide], on human mGlu2 receptor, the Emax was 104% and the IC50 is 2.29e-08 M.
In the case of `COc1ccc(C(=O)Nc2cnn3c2C(=O)N(c2ccc(C(F)(F)F)c(OC)n2)C[C@@H]3C)cc1` [Co. No. 77], the melting point turned out to be 194.9 °C. Also, on human mGlu2 receptor, the Emax came to 103% and the IC50 was 7.76e-08 M.
On to `C[C@H]1CN(c2ccc(C(F)(F)F)cc2)C(=O)c2c(NC(=O)c3cccc(O)c3)cnn21` [Co. No. 144], for which the melting point was determined as 240.46 °C. At human mGlu2 receptor, the maximal response (Emax) is 115% and the IC50 is 2.04e-09 M.
In the case of `C[C@H]1CN(c2ccc(C(F)(F)F)cc2)C(=O)c2c(NC(=O)c3ccc(C#N)cn3)cnn21` [Co. No. 85], the melting point was determined as 291.58 °C. Moreover, at human mGlu2 receptor, the Emax was 106% and the IC50 is 1.66e-07 M.
Regarding `Cc1cc(C(=O)Nc2cnn3c2C(=O)N(c2ccc(C(F)(F)F)cc2)C[C@@H]3C)[nH]n1` [Co. No. 89], the melting point came to 285.92 °C. Besides, on human mGlu2 receptor, the maximal effect (Emax) worked out at 100% and the IC50 was 2.45e-07 M.
Molecule `COCC1CN(c2ccc(C(F)(F)F)c(Cl)c2)C(=O)c2c(NC(=O)c3ccc(N)nc3)cnn21` (centres unmarked) [Co. No. 141] showed a melting point of 230.4 °C.
For the molecule `Cc1cc(C(=O)Nc2cnn3c2C(=O)N(c2ccc(C(F)(F)F)c(Cl)c2)C[C@@H]3C)cnc1NC(C)(C)C` [Co. No. 168, 6-(tert-butylamino)-N-[(7S)-5-[3-chloro-4-(trifluoromethyl)phenyl]-7-methyl-4-oxo-6,7-dihydropyrazolo[1,5-a]pyrazin-3-yl]-5-methyl-pyridine-3-carboxamide], at human mGlu2 receptor, the maximum response (Emax) was 105% and the IC50 is 2.88e-08 M.
For `Cc1nccc(C(=O)Nc2cnn3c2C(=O)N(c2ccc(C(F)(F)F)cc2)C[C@@H]3C)c1C` [Co. No. 154] the same measures were 105% and 6.03e-08 M.
For the molecule `COc1nc(N2C[C@H](C)n3ncc(NC(=O)c4ccc(N)nc4)c3C2=O)ccc1Cl` [Co. No. 65], at human mGlu2 receptor, the Emax was determined as 111% and the IC50 is 2.69e-08 M.
On to `C[C@H]1CN(c2ccc(C(F)(F)F)cc2)C(=O)c2c(NC(=O)c3ccc(N)nn3)cnn21` [Co. No. 90], for which, at human mGlu2 receptor, the Emax came out at 97% and the IC50 is 2.88e-07 M.
`Cc1cncc(C(=O)Nc2cnn3c2C(=O)N(c2ccc(Cl)cc2)C[C@@H]3C)c1` [Co. No. 131]: at human mGlu2 receptor, the Emax was 107% and the IC50 was 1.66e-08 M.
`Cc1cnc(N)c(C(=O)Nc2cnn3c2C(=O)N(c2ccc(SC(F)(F)F)cc2)C[C@@H]3C)c1` [Co. No. 207] yielded a melting point of 172.9 °C.
`C[C@H]1CN(c2ccc(C(F)(F)F)cc2)C(=O)c2c(NC(=O)c3ccccn3)cnn21` [Co. No. 24]: at human mGlu2 receptor, the maximal response (Emax) stood at 102% and the IC50 was 5.89e-09 M.
Turning to `C[C@H]1CN(c2ccc(C(F)(F)F)c(CF)c2)C(=O)c2c(NC(=O)c3ccc(N)nc3)cnn21` [Co. No. 5, 6-Amino-N-[(7S)-5-[3-(fluoromethyl)-4-(trifluoromethyl)phenyl]-7-methyl-4-oxo-6,7-dihydropyrazolo[1,5-a]pyrazin-3-yl]pyridine-3-carboxamide], at human mGlu2 receptor, the Emax was found to be 107% and the IC50 was 2.4e-09 M.
`Cc1cc(C(=O)Nc2cnn3c2C(=O)N(c2ccc(Cl)cc2)C[C@@H]3C)cc(C)n1` [Co. No. 132]: on human mGlu2 receptor, the Emax was found to be 112% and the IC50 is 8.71e-09 M.
In the case of `Cc1cc(C(=O)Nc2cnn3c2C(=O)N(c2ccc(C(F)(F)F)cc2)C[C@@H]3C)c(C)cn1` [Co. No. 157], on human mGlu2 receptor, the maximal response (Emax) came to 106% and the IC50 is 1.86e-08 M.
`C[C@H]1CN(c2ccc(C(F)(F)F)c(CO)c2)C(=O)c2c(NC(=O)c3ccc(N)nc3)cnn21` [Co. No. 165] came in with a melting point of 238.83 °C.
`C[C@H]1CN(c2ccc(C(F)(F)F)cc2)C(=O)c2c(NC(=O)c3ccc(O)nn3)cnn21` [Co. No. 92]: on human mGlu2 receptor, the Emax stood at 101% and the IC50 is 1.26e-06 M.
On the same counts, the results for `Cc1nccc(C(=O)Nc2cnn3c2C(=O)N(c2ccc(C(F)(F)F)c(Cl)c2)C[C@@H]3C)c1C` [Co. No. 155] are 104% and 5.5e-09 M.
`Cc1cc(N2C[C@H](C)n3ncc(NC(=O)c4cccnc4N)c3C2=O)ccc1Cl` [Co. No. 208]: the melting point came to 174.32 °C.
Regarding `Cc1cc(C(=O)Nc2cnn3c2C(=O)N(c2ccc(C(F)(F)F)c(Cl)c2)C[C@@H]3C)cnc1N` [Co. No. 169, 6-Amino-N-[(7S)-5-[3-chloro-4-(trifluoromethyl)phenyl]-7-methyl-4-oxo-6,7-dihydropyrazolo[1,5-a]pyrazin-3-yl]-5-methyl-pyridine-3-carboxamide], on human mGlu2 receptor, the maximal response (Emax) was 108% and the IC50 was 5.89e-10 M.
Consider `C[C@H]1CN(c2ccc(C(F)(F)F)cc2)C(=O)c2c(NC(=O)c3ncccc3F)cnn21` [Co. No. 67], for which, on human mGlu2 receptor, the maximum response (Emax) was 102% and the IC50 is 2.82e-08 M.
`Cc1cnc(NC(C)(C)C)c(C(=O)Nc2cnn3c2C(=O)N(c2ccc(C(F)(F)F)c(Cl)c2)C[C@@H]3C)c1` [Co. No. 167, 2-(tert-Butylamino)-N-[(7S)-5-[3-chloro-4-(trifluoromethyl)phenyl]-7-methyl-4-oxo-6,7-dihydropyrazolo[1,5-a]pyrazin-3-yl]-5-methyl-pyridine-3-carboxamide]: at human mGlu2 receptor, the maximal effect (Emax) is 103% and the IC50 was 2.82e-07 M.
On the same counts, the results for `COc1cccc(F)c1C(=O)Nc1cnn2c1C(=O)N(c1ccc(C(F)(F)F)cc1)C[C@@H]2C` [Co. No. 41] are 109% and 1.05e-08 M.
As to `COCC1CN(c2ccc(C(F)(F)F)c(Cl)c2)C(=O)c2c(NC(=O)c3ccc(N)nc3)cnn21` (centres unmarked) [Co. No. 140], the melting point turned out to be 230.27 °C.
Regarding `C[C@H]1CN(c2ccc(C(F)(F)F)cc2)C(=O)c2c(NC(=O)c3ncccn3)cnn21` [Co. No. 98], on human mGlu2 receptor, the maximum response (Emax) came out at 106% and the IC50 is 1.51e-07 M.
For `Cc1cc(C(=O)Nc2cnn3c2C(=O)N(c2ccc(C(F)(F)F)cc2)C[C@@H]3C)cc(CF)n1` (racemic) [Co. No. 209], the melting point came to 157.37 °C.
Turning to `C[C@H]1CN(c2ccc(C(F)(F)F)cc2)C(=O)c2c(NC(=O)c3cc(N)[nH]n3)cnn21` [Co. No. 84, 5-Amino-N-[(7S)-7-methyl-4-oxo-5-[4-(trifluoromethyl)phenyl]-6,7-dihydropyrazolo[1,5-a]pyrazin-3-yl]-1H-pyrazole-3-carboxamide], at human mGlu2 receptor, the Emax turned out to be 109% and the IC50 is 1.38e-07 M.

Source of the values: patent US10519162B2, “6,7-dihydropyrazolo[1,5-α]pyrazin-4(5H)-one compounds and their use as negative allosteric modulators of mGluR2 receptors” (Janssen Pharmaceutica NV, priority 2014, dated 2019).
